This note sets out measurements from patent US12486272B2 (NIHON NOHYAKU CO., LTD., priority 2019, dated 2025).

One experiment relates to Dirofilaria immitis. Put plainly: Larval motility assay on Dirofilaria immitis. Particulars: 72 h, L1 stage larvae, 3 days, relative to DMSO only, read-out: percent motility inhibition. How it is done: Larval Motility Assay on Dirofilaria immitis
Five hundred L1 stage larvae of D. immitis were diluted in a predetermined conditioned medium and introduced into each well of a 96-well plate. DMSO diluted solutions of various compounds of the present invention were added at the final concentration of 50 ppm to the wells of the 96-well plate. The plate was allowed to stand for 3 days, and then larval motility was examined. The percent motility inhibition in the wells of each treatment was calculated relative to the wells of treatment with DMSO only.

A further experiment concerns Ctenocephalides felis. Put plainly: whole plant or invertebrate. The class given is in vivo. Particulars: 50 ppm in bovine blood, oral via feeder, adults, following day, read-out: mortality rate.
In another experiment the test system is Haemonchus contortus. In words: Larval motility assay on Haemonchus contortus. To be noted: 96 h, L1 stage larvae, 4 days, relative to DMSO only, read-out: percent motility inhibition. How it is done:
Larval Motility Assay on Haemonchus contortus DMSO diluted solutions of various compounds of the present invention were added at the final concentration of 50 ppm to the wells of a 96-well plate containing a predetermined conditioned medium. Twenty L1 stage larvae of H. contortus were introduced into each well of the 96-well plate. The plate was allowed to stand for 4 days, and then larval motility was examined. The percent motility inhibition in the wells of each treatment was calculated relative to the wells of treatment with DMSO only.

Another experiment deals with Rhipicephalus sanguineus. Put plainly: Assay for transdermal parasiticidal activity against nymphs of Rhipicephalus sanguineus. The class given is in vivo. Particulars: 48 h, read-out: mortality rate. The source says: Assay for Transdermal Parasiticidal Activity Against Nymphs of Rhipicephalus sanguineus
DMSO diluted solutions of various compounds of the present invention were individually diluted to the final concentration of 100 ppm with an acetone/triton mixture and applied to the inside of vented sample bottles. After overnight drying, ten nymphs of R. sanguineus were introduced into each bottle, and the mortality rate was examined two days later. Aberrant adults were regarded as the dead.

The structures appear in SMILES notation. Where only a bound is given, the exact number is not on record here.

On to `CCS(=O)(=O)c1cc(/C(Br)=N/OCCSC)cnc1-c1nc2cc(C(F)(F)C(F)(F)F)nnc2n1C` [Compound 1-16], for which the inhibition at 50 ppm with Dirofilaria immitis is no less than 50%.

Regarding `CCS(=O)(=O)c1cc(/C(=N/OCCS(C)(=O)=O)OC)cnc1-c1nc2cc(C(F)(F)C(F)(F)F)nnc2n1C` [Compound 1-3, Methyl 5-ethylsulfonyl-N-(2-methylsulfonylethoxy)-6-(6-pentafluoroethyl-3-methyl-3H-imidazo[4,5-c]pyridazin-2-yl)nicotinimidate], the mortality at 50 ppm in the experiment on Ctenocephalides felis was no less than 50%. For the same compound, the inhibition at 50 ppm in the experiment on Dirofilaria immitis and with Haemonchus contortus was no less than 50% throughout.

With `CCS(=O)(=O)c1cc(/C(=N/OCCSC)n2cncn2)cnc1-c1nc2cc(C(F)(F)C(F)(F)F)nnc2n1C` [Compound 1-22], the mortality at 50 ppm in the experiment with Ctenocephalides felis was no less than 50%. Further, the inhibition at 50 ppm with Dirofilaria immitis and in the experiment on Haemonchus contortus was no less than 50% throughout.

As for `CCS(=O)(=O)c1cc(/C(=N/OCCSC)SC)cnc1-c1nc2cc(C(F)(F)C(F)(F)F)nnc2n1C` [Compound 1-19, Methyl 5-ethylsulfonyl-N-(2-methylthioethoxy)-6-(6-pentafluoroethyl-3-methyl-3H-imidazo[4,5-c]pyridazin-2-yl)nicotinyl thioimidate], the mortality at 100 ppm in the experiment with Rhipicephalus sanguineus is no less than 50%. Moreover, the inhibition at 50 ppm in the experiment with Dirofilaria immitis and with Haemonchus contortus was no less than 50% in each case.

`CCS(=O)(=O)c1cc(/C(=N/OCCSC)OC)cnc1-c1nc2cc(C(F)(F)C(F)(F)F)nnc2n1C` [Compound 1-1, methyl 5-ethylsulfonyl-N-(2-methylthioethoxy)-6-(6-pentafluoroethyl-3-methyl-3H-imidazo[4,5-c]pyridazin-2-yl)nicotinimidate]: the mortality at 50 ppm in the experiment on Ctenocephalides felis was no less than 50%. For the same compound, in the experiment with Rhipicephalus sanguineus, the mortality at 100 ppm was no less than 50%. Further, the inhibition at 50 ppm in the experiment with Dirofilaria immitis and in the experiment on Haemonchus contortus was no less than 50% in each case.

The term inhibition denotes the relative decrease from the control value, in per cent. One may read the mortality as the percentage killed.
